Results on 17 compounds are retold here after US8710049B2, “Diaminocyclohexane compounds and uses thereof” (Bristol-Myers Squibb Company, priority 2011, dated 2014).

Assay [1] deals with T1, Y4 receptor (Homo sapiens, UniProt P50391). Nature of the assay: NPY4 cAMP HTRF Agonist Assay. Also on record: expressed in transfected cells. The following applies: human Y4 stable CHO clonal cells; inhibitory cAMP assay with Forskolin and IBMX, 30 minutes at room temperature. In kind it is cell-based. As to the method:
NPY4 cAMP HTRF Agonist Assay
The functionality of the compound at Y4 receptor was analyzed using an inhibitory cAMP assay (CISBIO, HTRF cAMP kit #62AM4PEC) to measure the Gi activation by Y4 agonism.
The human Y4 stable CHO clonal cells were maintained in culture medium (F-12 containing 10% Fetal Bovine Serum, […] GENETICIN®, […] Zeocin). Before the experiment, 5 μL of 1 uM Forskolin (Sigma, # F6886) and 100 uM IBMX (Sigma, #15879) in PBS buffer were added into 384-well plates (PE, Proxi-plate) that were pre-dotted with […] compounds. The cells were removed from the flasks by Cellstripper, counted and adjusted to 1.0×10^6 cells/mL in PBS buffer, and added 5 μL/well (5000 cells/well) into the above 384-well plates. The cells were then covered and incubated for 30 minutes at room temperature. After incubation, 5 μL/well of D2-conjugate in HTRF lysis buffer was first added, followed by adding 5 μL/well of anti-cAMP Cryptate in HTRF lysis buffer. The plates were incubated for another 1 hour at room temperature and read on the EnVision Multilabel Plate Reader.
(In general: Time-resolved FRET reads energy transfer from a long-lived donor to a nearby acceptor.)

In assay [2] the target is T1, Y4 receptor. The following applies: background statement; cited from earlier work.

As usually defined, the EC50 is the concentration at which the effect is half-maximal.

T1 sequence (P50391 whole entry): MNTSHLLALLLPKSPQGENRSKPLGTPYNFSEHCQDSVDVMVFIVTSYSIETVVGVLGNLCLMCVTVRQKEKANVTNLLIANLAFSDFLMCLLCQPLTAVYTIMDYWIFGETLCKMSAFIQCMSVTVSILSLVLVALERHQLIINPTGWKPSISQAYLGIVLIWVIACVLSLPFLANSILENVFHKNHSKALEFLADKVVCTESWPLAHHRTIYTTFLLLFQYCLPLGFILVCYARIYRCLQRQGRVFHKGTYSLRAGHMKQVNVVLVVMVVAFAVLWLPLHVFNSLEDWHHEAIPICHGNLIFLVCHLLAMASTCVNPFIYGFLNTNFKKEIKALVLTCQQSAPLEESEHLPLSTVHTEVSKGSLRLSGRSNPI

`O=C(Nc1ccccc1)N[C@@H]1CCCC[C@H]1N[C@H]1CCCN(c2ccc([N+](=O)[O-])cc2)C1` [Example 1, 1-((1R,2R)-2-((S)-1-(4-Nitrophenyl)piperidin-3-ylamino)cyclohexyl)-3-phenyl urea] had an EC50 on Y4 receptor [1] of 81 nM. The same measure, in the same setting: under `O=C(Nc1ccc(OC(F)(F)F)cc1)N[C@@H]1CCCC[C@H]1N[C@H]1CCCN(c2ccc([N+](=O)[O-])cc2)C1` [Example 3, 1-((1R,2R)-2-((S)-1-(4-Nitrophenyl)piperidin-3-ylamino)cyclohexyl)-3-(4-(trifluoromethoxy)phenyl)urea] stands 46 nM.

On Y4 receptor [1], `O=C(Nc1ccc(OC(F)(F)F)cc1)N[C@@H]1CCCC[C@H]1N[C@H]1C[C@@H]2C[C@H]1N(c1ccc([N+](=O)[O-])cc1)C2` [Example 4, 1-((1R,2R)-2-((1R,4R,6S)-2-(4-Nitrophenyl)-2-azabicyclo[2.2.1]heptan-6-ylamino)cyclohexyl)-3-(4-(trifluoromethoxy)phenyl)urea] showed an EC50 of 25 nM. On the same count and under the same terms, under `Cc1nnc(-c2ccc(N3CCC[C@H](N[C@@H]4CCCC[C@H]4NC(=O)OCc4ccccc4)C3)cc2)o1` [Example 7, Benzyl (1R,2R)-2-((S)-1-(4-(5-methyl-1,3,4-oxadiazol-2-yl)phenyl)piperidin-3-ylamino)cyclohexylcarbamate] stands 72 nM. Turning to `Cn1cc(CC(=O)N[C@@H]2CCCC[C@H]2N[C@H]2CCCN(c3ccc(C#N)cc3)C2)c2ccccc21` [Example 10, N-((1R,2R)-2-((S)-1-(4-Cyanophenyl)piperidin-3-ylamino)cyclohexyl)-2-(1-methyl-1H-indol-3-yl)acetamide], at Y4 receptor [1], the EC50 was determined as 330 nM.

`N#Cc1ccc(N2CCC[C@H](N[C@@H]3CCCC[C@H]3NC(=O)OCc3ccc(OC(F)(F)F)cc3)C2)cc1` [Example 16, 4-(Trifluoromethoxy)benzyl (1R,2R)-2-((S)-1-(4-cyanophenyl)piperidin-3-ylamino)cyclohexylcarbamate] yielded an EC50 on Y4 receptor [1] of 72 nM.

Take `CCOC(=O)c1ccc(N2CC[C@H](N[C@@H]3CCCC[C@H]3NC(=O)OCc3ccccc3)C2)cc1` [Example 32, Ethyl 4-((S)-3-((1R,2R)-2-(benzyloxycarbonylamino)cyclohexylamino)pyrrolidin-1-yl)benzoate]: the EC50 at Y4 receptor [1] is 540 nM.

In turn, `COc1ccc(COC(=O)N[C@@H]2CCCC[C@H]2N[C@H]2CCCN(c3ccc(C#N)cc3)C2)cc1` [Example 34, 4-Methoxybenzyl (1R,2R)-2-((S)-1-(4-cyanophenyl)piperidin-3-ylamino)cyclohexylcarbamate] gave an EC50 at Y4 receptor [1] of 575 nM. Same read-out and setting: to `N#Cc1ccc(N2CCC[C@H](N[C@@H]3CCCC[C@H]3NC(=O)Nc3cccc(O)c3)C2)cc1` [Example 36, 1-((1R,2R)-2-((S)-1-(4-Cyanophenyl)piperidin-3-ylamino)cyclohexyl)-3-(3-hydroxyphenyl)urea] belongs 610 nM. The same measure, in the same setting: to `O=C(N[C@@H]1CCCC[C@H]1N[C@H]1CCCN(c2ccc(-c3nc4ccccc4o3)cc2)C1)OCc1ccccc1` [Example 43, Benzyl (1R,2R)-2-((S)-1-(4-(benzo[d]oxazol-2-yl)phenyl)piperidin-3-ylamino)cyclohexylcarbamate] belongs 1400 nM; to `N#Cc1cc(N2CCC[C@H](N[C@@H]3CCCC[C@H]3NC(=O)Nc3ccccc3)C2)ccn1` [Example 45, 1-((1R,2R)-2-((S)-1-(2-Cyanopyridin-4-yl)piperidin-3-ylamino)cyclohexyl)-3-phenylurea], 1460 nM; to `O=C(Nc1ccccc1)N[C@@H]1CCCC[C@H]1N[C@H]1CCCN(c2ccc([N+](=O)[O-])cc2)CC1` [Example 52, 1-((1R,2R)-2-((S)-1-(4-Nitrophenyl)azepan-4-ylamino)cyclohexyl)-3-phenylurea], 2890 nM. Same read-out and setting: to `N#Cc1ccc(N2CCC[C@H](N[C@@H]3CCCC[C@H]3NC(=O)Nc3ccc(C(F)(F)F)cc3)C2)cc1` [Example 56, 1-((1R,2R)-2-((S)-1-(4-Cyanophenyl)piperidin-3-ylamino)cyclohexyl)-3-(4-(trifluoromethyl)phenyl)urea] belongs 3620 nM; to `C[C@]1(N[C@@H]2CCCC[C@H]2NC(=O)OCc2ccccc2)CCCN(c2ccc([N+](=O)[O-])cc2)C1` [Example 58, Benzyl (1R,2R)-2-((S)-3-methyl-1-(4-nitrophenyl)piperidin-3-ylamino)cyclohexylcarbamate], 10 nM.

Consider `Cc1ccc(COC(=O)N[C@@H]2CCCC[C@H]2N[C@H]2CCCN(c3ccc(C(F)(F)F)cc3)C2)cc1` [Example 63], for which, at Y4 receptor [1], the EC50 turned out to be 515 nM. Compound `O=C(Nc1cc(C(F)(F)F)cc(C(F)(F)F)c1)N[C@@H]1CCCC[C@H]1N[C@H]1CCCN(c2ccc(C(F)(F)F)cc2)C1` [Example 89] registered an EC50 on Y4 receptor [1] of 2340 nM. On to “PYY: naturally secreted 36 amino acid, C-terminally amidated PP-fold peptide”, for which, in the assay with Y4 receptor [2], the “affinity for Y4 receptor” value is reported as “nanomolar affinity”.
